These results are taken from patent publication US12398141B2 (SHANGHAI SYNERGY PHARMACEUTICAL SCIENCES CO., LTD, priority 2019, dated 2025).

Common to all, as to assay type: biochemical
One assay addresses JAK1 (Homo sapiens (Human), UniProt P23458). Put plainly: JAK1 LANCE Ultra kinase assay. The conditions noted are these: for IC50: 38 uM ATP; for JAK2/JAK1: ratio of IC50 JAK2 to IC50 JAK1. Here is the method: Inhibition test on activity of JAK kinase in vitro was carried out by the following methods.
JAK1 LANCE® Ultra assay, JAK2 LANCE® Ultra assay and JAK3 LANCE® Ultra assay were used to carry out the test separately, and kits of the above assays were supplied by PerkinElmer. […]
JAK1, JAK2 and JAK3 kinase, ATP and substrates were dissolved and diluted with buffers.
A test liquid was 2 nM Eu-W1024 anti-phosphotyrosine (PerkinElmer, AD0069). A stop buffer was 10 mM edetic acid (Intech, 1842C505).
2.5 μl of an 8-fold solution of the compound and 5 μl of a 4-fold solution of JAK1 or JAK2 or JAK3 kinase were added into a 384-well plate, respectively, and reacted for 10 minutes at room temperature. 2.5 μl of an 8-fold solution of ULight™-JAK-1 peptide/ATP was added and reacted for 90 minutes at room temperature. Finally, 5 μl of 4-fold edetic acid stop buffer and 5 μl of 4-fold test liquid of Eu-W1024 anti-phosphotyrosine were added and incubated for 60 minutes.
According to the formula: percentage of inhibition rate=(maximum value−transform value)/(maximum value−minimum value)×100, inhibition rate of each compound at various concentrations was calculated. The maximum value was the reference value of dimethyl sulfoxide added into the well plate, the minimum value was the blank value, and the transform value is the value obtained by the well of each compound. The IC50 values of the corresponding compounds were then obtained by fitting by using the XLFit fitting tool in excel.

Another assay deals with JAK2 (Homo sapiens (Human), UniProt O60674). Put plainly: JAK2 LANCE Ultra kinase assay. The conditions noted are these: 12 uM ATP.
JAK2, sequence (O60674 whole entry): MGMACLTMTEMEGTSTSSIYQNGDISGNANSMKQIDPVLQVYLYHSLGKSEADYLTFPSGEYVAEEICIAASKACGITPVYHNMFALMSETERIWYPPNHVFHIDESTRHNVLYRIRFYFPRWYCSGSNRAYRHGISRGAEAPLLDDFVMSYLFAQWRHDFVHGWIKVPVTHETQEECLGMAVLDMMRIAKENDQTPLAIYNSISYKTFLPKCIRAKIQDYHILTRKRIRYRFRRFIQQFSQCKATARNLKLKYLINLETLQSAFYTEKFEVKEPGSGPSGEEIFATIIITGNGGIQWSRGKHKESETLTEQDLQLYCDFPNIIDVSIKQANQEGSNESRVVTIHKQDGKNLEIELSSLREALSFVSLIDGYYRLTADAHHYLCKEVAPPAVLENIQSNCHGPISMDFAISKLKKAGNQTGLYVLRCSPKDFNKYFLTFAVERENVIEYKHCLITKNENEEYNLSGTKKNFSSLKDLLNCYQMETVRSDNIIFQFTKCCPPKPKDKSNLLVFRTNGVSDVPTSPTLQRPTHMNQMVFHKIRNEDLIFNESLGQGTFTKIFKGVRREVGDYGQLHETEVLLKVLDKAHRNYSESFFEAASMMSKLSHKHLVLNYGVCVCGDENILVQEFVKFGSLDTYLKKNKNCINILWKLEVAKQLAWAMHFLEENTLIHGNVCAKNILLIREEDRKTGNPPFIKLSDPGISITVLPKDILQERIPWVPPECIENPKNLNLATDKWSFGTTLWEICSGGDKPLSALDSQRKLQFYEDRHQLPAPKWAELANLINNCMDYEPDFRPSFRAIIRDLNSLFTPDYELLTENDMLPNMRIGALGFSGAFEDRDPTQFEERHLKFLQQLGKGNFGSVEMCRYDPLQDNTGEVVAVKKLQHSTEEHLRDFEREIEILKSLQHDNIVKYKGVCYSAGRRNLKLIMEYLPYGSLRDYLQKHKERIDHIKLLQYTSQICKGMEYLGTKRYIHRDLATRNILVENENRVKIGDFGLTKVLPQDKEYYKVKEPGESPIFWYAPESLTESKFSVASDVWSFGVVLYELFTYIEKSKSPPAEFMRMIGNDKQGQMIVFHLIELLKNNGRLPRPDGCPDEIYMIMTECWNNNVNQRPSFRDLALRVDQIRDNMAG
A further assay addresses JAK3 (Homo sapiens (Human), UniProt P52333). Put plainly: JAK3 LANCE Ultra kinase assay. As to conditions: 4 uM ATP.

JAK3, sequence (P52333 whole entry): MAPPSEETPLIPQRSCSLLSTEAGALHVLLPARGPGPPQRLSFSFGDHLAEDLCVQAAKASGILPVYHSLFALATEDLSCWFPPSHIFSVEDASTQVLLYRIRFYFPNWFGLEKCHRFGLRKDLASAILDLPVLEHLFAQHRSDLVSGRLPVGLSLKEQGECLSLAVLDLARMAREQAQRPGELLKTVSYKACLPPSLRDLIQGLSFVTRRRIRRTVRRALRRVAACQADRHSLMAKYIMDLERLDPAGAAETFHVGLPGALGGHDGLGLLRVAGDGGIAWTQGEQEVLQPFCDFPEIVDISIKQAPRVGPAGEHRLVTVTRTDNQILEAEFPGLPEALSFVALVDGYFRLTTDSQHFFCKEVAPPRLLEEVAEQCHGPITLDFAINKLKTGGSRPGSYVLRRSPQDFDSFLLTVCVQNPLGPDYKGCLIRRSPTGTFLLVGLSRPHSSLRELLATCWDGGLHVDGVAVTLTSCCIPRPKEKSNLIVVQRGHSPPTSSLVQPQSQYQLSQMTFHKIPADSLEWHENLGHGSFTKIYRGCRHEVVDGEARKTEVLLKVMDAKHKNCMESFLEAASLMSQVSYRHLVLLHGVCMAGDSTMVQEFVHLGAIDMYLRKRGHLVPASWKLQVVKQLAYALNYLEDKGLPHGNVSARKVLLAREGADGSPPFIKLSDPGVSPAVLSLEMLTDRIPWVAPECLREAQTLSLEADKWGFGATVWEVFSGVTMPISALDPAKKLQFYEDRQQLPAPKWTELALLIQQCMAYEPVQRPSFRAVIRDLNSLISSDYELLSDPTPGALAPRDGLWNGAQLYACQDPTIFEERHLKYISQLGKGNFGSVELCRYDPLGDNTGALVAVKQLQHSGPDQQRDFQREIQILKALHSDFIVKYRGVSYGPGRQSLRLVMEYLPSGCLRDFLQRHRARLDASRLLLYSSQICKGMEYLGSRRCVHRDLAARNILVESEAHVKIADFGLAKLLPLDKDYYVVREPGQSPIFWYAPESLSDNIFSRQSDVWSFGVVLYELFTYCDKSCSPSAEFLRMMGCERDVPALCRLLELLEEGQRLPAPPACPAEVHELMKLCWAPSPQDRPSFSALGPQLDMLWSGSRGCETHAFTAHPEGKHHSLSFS
JAK1, sequence (P23458 whole entry): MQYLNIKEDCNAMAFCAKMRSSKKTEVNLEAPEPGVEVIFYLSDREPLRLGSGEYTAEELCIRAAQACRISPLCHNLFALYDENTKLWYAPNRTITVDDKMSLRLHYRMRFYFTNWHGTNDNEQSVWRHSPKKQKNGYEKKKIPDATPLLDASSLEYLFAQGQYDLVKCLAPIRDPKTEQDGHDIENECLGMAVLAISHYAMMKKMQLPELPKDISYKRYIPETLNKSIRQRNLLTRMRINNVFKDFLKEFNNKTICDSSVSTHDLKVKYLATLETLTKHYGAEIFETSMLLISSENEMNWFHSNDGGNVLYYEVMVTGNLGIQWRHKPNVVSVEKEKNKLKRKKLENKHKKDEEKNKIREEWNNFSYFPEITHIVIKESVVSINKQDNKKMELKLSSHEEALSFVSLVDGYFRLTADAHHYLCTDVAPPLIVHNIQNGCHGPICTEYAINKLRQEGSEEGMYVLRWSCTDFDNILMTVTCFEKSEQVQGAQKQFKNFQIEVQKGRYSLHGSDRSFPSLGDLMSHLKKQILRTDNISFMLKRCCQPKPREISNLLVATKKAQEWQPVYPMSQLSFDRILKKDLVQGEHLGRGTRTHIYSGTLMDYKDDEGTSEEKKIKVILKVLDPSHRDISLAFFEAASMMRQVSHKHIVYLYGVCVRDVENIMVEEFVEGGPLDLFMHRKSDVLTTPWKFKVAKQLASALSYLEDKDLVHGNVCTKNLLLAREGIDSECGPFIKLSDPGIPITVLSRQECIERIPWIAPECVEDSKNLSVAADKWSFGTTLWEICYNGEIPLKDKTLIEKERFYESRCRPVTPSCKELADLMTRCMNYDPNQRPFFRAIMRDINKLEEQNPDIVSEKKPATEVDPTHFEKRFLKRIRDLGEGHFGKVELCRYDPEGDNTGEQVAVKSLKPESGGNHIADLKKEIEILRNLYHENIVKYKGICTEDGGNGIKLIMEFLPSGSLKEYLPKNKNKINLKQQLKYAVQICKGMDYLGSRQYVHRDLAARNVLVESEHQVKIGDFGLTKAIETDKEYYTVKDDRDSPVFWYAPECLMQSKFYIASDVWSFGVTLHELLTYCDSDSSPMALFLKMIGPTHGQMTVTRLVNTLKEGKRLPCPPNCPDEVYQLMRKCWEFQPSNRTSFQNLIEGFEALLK

Take `CN(c1c(C#N)cnc2[nH]ccc12)[C@H]1C[C@@H]2CN(C(=O)Nc3nc(C(C)(C)C)ns3)C[C@@H]2C1` [Compound H21, (3aR,5s,6aS)-4-({2-[(3-tert-butyl-1,2,4-thiadiazole-5-yl)carbamoyl]-hexahydrocyclopenta [c]pyrrole-5-yl}-methyl-amino)-1H-pyrrolo[2,3-b]pyridin-5-carbonitrile]: the IC50 stood at 9.4 nM against JAK1, 46 nM against JAK2 and 223 nM against JAK3. Besides, on JAK1, the JAK2/JAK1 was found to be 15.40.

With `C[C@H](O)C(=O)N1C[C@H]2C[C@H](N(C)c3c(C#N)cnc4[nH]ccc34)C[C@H]2C1` [Compound H23, (3aR,5S,6aS)-4-{[2-((2S)-2-hydroxypropionyl)-hexahydrocyclopenta[c]pyrrole-5-yl]-methyl-amino}-1H-pyrrolo[2,3-b]pyridin-5-carbonitrile], the figures for the IC50 at JAK1, on JAK2 and at JAK3 were 7.16 nM, 135 nM and 533 nM, respectively. For the same molecule, the JAK2/JAK1 on JAK1 came to 18.85.

Regarding `CN(c1c(C#N)cnc2[nH]ccc12)[C@H]1C[C@@H]2CN(S(=O)(=O)c3cccc(C(F)(F)F)c3)C[C@@H]2C1` [Compound H24], the half-inhibitory concentration (IC50) at JAK1 was 5.1 nM; against JAK2, 12.6 nM; on JAK3, 28 nM. Further, on JAK1, the JAK2/JAK1 is 2.40.

With `CN(c1c(C#N)cnc2[nH]ccc12)[C@H]1C[C@@H]2CN(S(=O)(=O)CCC(F)(F)F)C[C@@H]2C1` [Compound H27], the results for the concentration for half-maximal inhibition (IC50) against JAK1, on JAK2 and at JAK3 were 5.6 nM, 33 nM and 171 nM, respectively. At JAK1, the JAK2/JAK1 is given as 5.89.

For the molecule `CN(c1c(C#N)cnc2[nH]ccc12)[C@H]1C[C@@H]2CN(S(=O)(=O)c3cccc(F)c3)C[C@@H]2C1` [Compound H28], the results for the IC50 against JAK1, at JAK2 and against JAK3 were 9.5 nM, 135 nM and 220 nM, respectively. The JAK2/JAK1 on JAK1 is recorded as 14.21.

For `CN(c1c(C#N)cnc2[nH]ccc12)[C@H]1C[C@@H]2CN(C(=O)Nc3nc(C4CC4)no3)C[C@@H]2C1` [Compound H32, (3aR,5s,6aS)-4-({2-[(3-cyclopropyl-1,2,4-oxadiazole-5-yl)carbamoyl]-hexahydrocyclopenta[c]pyrrole-5-yl}-methyl-amino)-1H-pyrrolo[2,3-b]pyridin-5-carbonitrile], the values for the IC50 against JAK1, on JAK2 and at JAK3 were 5 nM, 13 nM and 27 nM, respectively. Also, on JAK1, the JAK2/JAK1 was found to be 2.60.

For the molecule `CN(c1c(C#N)cnc2[nH]ccc12)[C@H]1C[C@@H]2CN(C(=O)Nc3nc(OCC(C)(C)O)ns3)C[C@@H]2C1` [Compound H45, (3aR,5s,6aS)-5-((5-cyano-1H-pyrrolo[2,3-b]pyridin-4-yl)(methyl)amino)-N-(3-(2-hydroxy-2-methyl-propoxy)-1,2,4-thiadiazole-5-yl)hexahydrocyclopentadiene[c]pyrrole-2(1H)-carboxamide], the half-inhibitory concentration (IC50) on JAK1 is 5.9 nM; against JAK2, 50 nM; on JAK3, 77 nM. At JAK1, the JAK2/JAK1 was 8.47.

As for `CCCS(=O)(=O)N[C@H]1C[C@@H](Nc2c(C#N)cnc3[nH]ccc23)C1` [Compound H46, (cis)-4-{[3-(propanesulfonamido)-cyclobutyl-1-yl]-amino}-1H-pyrrolo [2,3-b]pyridin-5-carbonitrile], the figures for the half-inhibitory concentration (IC50) at JAK1, at JAK2 and on JAK3 were 1.13 nM, 9.8 nM and 68 nM, respectively. Further, the JAK2/JAK1 at JAK1 worked out at 8.67.

As for `CCOc1noc(NC(=O)N2C[C@H]3C[C@H](N(C)c4c(C#N)cnc5[nH]ccc45)C[C@H]3C2)n1` [Compound H47, (3aR,5s,6aS)-5-((5-cyano-1H-pyrrolo[2,3-b]pyridin-4-yl)(methyl)amino)-N-(3-ethoxy-1,2,4-oxadiazole-5-yl)hexahydrocyclopentadiene[c]pyrrole-2(1H)-carboxamide], the IC50 is 2.67 nM against JAK1, 20 nM at JAK2 and 130 nM against JAK3. Besides, the JAK2/JAK1 on JAK1 amounted to 7.49.
